Experimental findings from patent US5606037A, “Processes antineoplastic heteronaphthoquinones” (BioChem Pharma Inc., priority 1995, dated 1997) are described below.

As usually defined, the IC50 is the concentration that inhibits the measured activity by half.

Where a name gives a salt, the structure may show the parent alone.

Type in all cases: cell-based, Human
Assay [1] deals with SKOV3 (Ovarian adenocarcinoma). The experiment in a line: In vitro cytotoxicity, microculture tetrazolium (MTT) assay, SKOV3. The following applies: SKOV3 ovarian adenocarcinoma, 48 h with compound, further 48 h, MTT, Table 1. The procedure:
(§1) The microculture tetrazolium assay was used to test in vitro cytotoxicity. This assay is described in Plumb, J. A. et al., 1989 Cancer Research 49, 4435-4440, which is herein incorporated by reference. The cytotoxicity of compounds towards tumor cells is measured in vitro using the assay. This assay method is based upon the ability of live, but not dead cells to reduce the yellow water soluble dye 3-(4,5-dimethylthiazol-2-yl)-2,5-diphenyltetrazolium bromide (MTT) to its water insoluble purple formazan product.
(§2) Human Tumor Cell lines, used were:
SKOV3 (Ovarian adenocarcinoma)--provided by Dr. V. Ling, Ontario Cancer Institute.
(§3) The cells were maintained in exponential growth in culture in minimal essential media (MEM) supplemented with non-essential amino acids, and containing 15% (v/v) fetal. bovine serum, 5 mM L-glutamine, 1 mM sodium pyruvate, and 0.1 U/ml insulin. All cell lines were grown at 37° C. in an atmosphere of 5% CO2 in air.
(§4) MTT: 2 mg/ml in phosphate buffered saline (stable at 4° C. in dark for 1 week).
(§5) Sorensen's buffer: 0.1M glycine/NaOH, pH 10.5, containing 0.1M NaCl.
(§6) Test compounds: 20 mM in DMSO and diluted to a final concentration of 200 μM in culture medium before use.
(§7) For each assay, doxorubicin is included as an inter-assay standard. This allows us to monitor the behaviour of the assay in general, and in particular, to check that the SKVLB line has maintained its resistant phenotype.
(§8) The assays are carried out in 96-well (8 well×12 well) microtiter plates. Serial dilutions of the compound are tested along the length of the plate. A 1:3 serial dilution of compound in culture medium covers a concentration range from 100 μM to 1.7 nM. Each concentration of compound is tested in quadruplet, allowing two compounds to be tested per plate. Wells containing no cells (blank) and cells with no test compound (control) are included on each plate.
(§9) Cells are plated out in 100 μl of culture medium in the microtiter plates at a density of around 1,500-4,000 cells per well. The plates are incubated overnight to allow the cells to become adherent after which the test compound is added (100 μl of appropriate dilution per well). The cells are incubated with test compound at 37° C. for 48 h after which the compound is replaced with fresh medium. After a further 48 h incubation at 37° C., 50 μl of MTT solution (2 mg/ml) is added to each well. The plates are incubated in the dark for 4 h at 37° C. after which the medium is removed. The MTT formazan product is extracted from the cells by the addition of 200 μl DMSO followed by 50 μl of Sorensen's buffer. The plates are shaken briefly and the absorbance at 570 nm is read using a Molecular Devices UV max plate reader. Curves are fit to the MTT assay data using a four parameter logistic equation, and the data are normalized to fit a 0% to 100% survival scale.

Assay [2] has as its system SKVLB (Ovarian; multidrug resistant). Nature of the assay: In vitro cytotoxicity, microculture tetrazolium (MTT) assay, SKVLB. To be noted: Homo sapiens; SKVLB multidrug resistant ovarian; 48 h with compound, further 48 h, MTT; Table 1. As to the method:
as §1, §2
SKVLB (Ovarian; multidrug resistant)--Dr. V. Ling, Ontario Cancer Institute.
as §3, §4, §5, §6, §7, §8, §9

In assay [3] the test system is T47D (Ductal carcinoma of breast). The experiment in a line: In vitro cytotoxicity, microculture tetrazolium (MTT) assay, T47D. To be noted: 48 h with compound, further 48 h, Table 1. As to the method:
as §1, §2
T47D (Ductal carcinoma of breast)--ATCC catalog #HTB-133.
as §3, §4, §5, §6, §7, §8, §9

The next assay concerns Lox (Melanoma). Nature of the assay: In vitro cytotoxicity, microculture tetrazolium (MTT) assay, LOX. The following applies: 48 h with compound, further 48 h, Table 1. The procedure: as §1, §2
Lox (Melanoma)--Southern Research Institute.
as §3, §4, §5, §6, §7, §8, §9

The test system of assay [4] is HT 29 (Colon adenocarcinoma). Nature of the assay: In vitro cytotoxicity, microculture tetrazolium (MTT) assay, HT29. To be noted: further 48 h, Table 1. The procedure: as §1, §2
HT 29 (Colon adenocarcinoma) ATCC catalog #HTB-38.
as §3, §4, §5, §6, §7, §8, §9

[5] abbreviates: Homo sapiens, HT-29, 48 h with compound.

`CC(=O)[C@@H]1CC2=C(C(=O)c3ccccc3C2=O)[C@@H](O[C@H]2C[C@H](NC(=O)C(F)(F)F)[C@H](I)[C@H](C)O2)O1` [BCH1620, (1'-S,1-R,3-S)-methyl-(1-[2',3',6'-trideoxy-3'-trifluoroacetamido-4'-iodo-L-lyxohexopyranose]-5,10-dioxo-3,4,5,10-tetrahydronaphtho-[2,3-c]-pyran-3-yl)-ketone]: the IC50 was determined as 4.2 nM in assay [1] (Homo sapiens, SK-OV-3); 216 nM in assay [2]; 183 nM in assay [3] (Homo sapiens); 22.7 nM in the assay with Lox (Melanoma) (Homo sapiens); 32.8 nM in assay [4] (setting [5]).

For `CC(=O)C1CC2=C(C(=O)c3ccccc3C2=O)C(OCC2CCCN(C(=O)OC(C)(C)C)C2)O1` (mixture of isomers) [BCH2060, Methyl-(1-O-[N-BOC-3-piperidinemethanol]-5,6-dioxo-3,4,5,10-tetrahydronaphthaleno-[2,3-c]pyran-3-yl) ketone], the IC50 amounted to 1140 nM in assay [1] (Homo sapiens, SK-OV-3); 2500 nM in assay [2]; 562 nM in assay [3] (Homo sapiens); 1950 nM in the assay on Lox (Melanoma) (Homo sapiens); 260 nM in assay [4] (setting [5]).

Turning to `COC1OC(C(=O)NCCCn2ccnc2)=CC2=C1C(=O)c1ccccc1C2=O` (centres unmarked) [BCH2157, (3-N-hydrochloroimidazolylpropyl)-1-methoxy-5,10-dioxo-5,10-dihydro-1H-naphtho-[2,3-c]-pyran-3-carboxamide], the IC50 in assay [1] amounted to 187 nM; in assay [3], 233 nM; in the assay on Lox (Melanoma), 15.5 nM; in assay [4] (48 h with compound) it was 1230 nM.

For `CC(=O)C1CC2=C(CO1)C(=O)c1ccccc1C2=O` (centres unmarked) [BCH1125, Methyl (5,10-dioxo-3,4,5,10-tetrahydronaphtho [2,3-C]pyran-3-yl) ketone], the half-maximal inhibitory concentration (IC50) in assay [1] (Homo sapiens, SK-OV-3) is > 100000 nM; in assay [2], 92900 nM; in assay [3] (Homo sapiens) it was 36400 nM; in the assay with Lox (Melanoma) (Homo sapiens), 52800 nM; in assay [4] (setting [5]), > 100000 nM.

On to `CO[C@H]1C[C@H](O[C@H]2O[C@H](C(C)=O)C[C@]34O[C@]23C(=O)c2ccccc2C4=O)O[C@@H](C)[C@H]1OS(C)(=O)=O` [BCH2141, (1'-S,1-R,3-S,4a-S,10a-S)-methyl-(1-[2',3',4',6'-tetradeoxy-3'-methoxy-4'-O-methanesulfonyl-L-lyxohexopyranose)-4a,10a-epoxy-5,10-dioxo-3,4,5,10-tetrahydronaphtho-[2,3-c]pyran-3-yl) ketone], for which the IC50 amounted to 8120 nM in assay [1] (Homo sapiens, SK-OV-3); 9960 nM in assay [2]; 3790 nM in assay [3] (Homo sapiens); 1820 nM in the assay on Lox (Melanoma) (Homo sapiens); 6440 nM in assay [4] (setting [5]).

As for `COC(=O)[C@H](CC(C)C)NC(=O)[C@@H](N)CO[C@H]1O[C@H](C(C)=O)CC2=C1C(=O)c1ccccc1C2=O` [BCH2000, (1S,2'S,3S,5'S)-Methyl-(1-O-[Serine-Leucine-Me ester]-5,10-dioxo-3,4,5,10-tetrahydro-1-H-naphtho[2,3-c]pyran-3-yl) ketone hydrochloride], the IC50 in assay [1] (Homo sapiens, SK-OV-3) came out at 95 nM; in assay [2], 6640 nM; in assay [3] (Homo sapiens), 338 nM; with Lox (Melanoma) (Homo sapiens), 90.5 nM; in assay [4] (setting [5]), 37.8 nM.

Turning to `CC(=O)[C@@]1(C)CC2=C(C(=O)c3ccccc3C2=O)[C@H](O[C@H]2C[C@H](NC(=O)C(F)(F)F)[C@H](O)[C@H](C)O2)O1` [BCH2082, (1'S, 1S, 3R)-1-(3'-trifluoroacetamido-2',3',6'-trideoxy-L-lyxohexopyranose)-3-acetyl-3-methyl-5,10-dioxo-4,5,10-trihydro-1H-naphtho-[2,3-c]-pyran], the IC50 in assay [1] (Homo sapiens, SK-OV-3) was found to be 1800 nM; in assay [2], 5600 nM; in assay [3] (Homo sapiens), 4000 nM; in the assay with Lox (Melanoma) (Homo sapiens) it was 1600 nM; in assay [4] (setting [5]), 2600 nM.

In the case of `CC(=O)C1CC2=C(C(=O)c3ccccc3C2=O)C(O)O1` (centres unmarked) [BCH1148, Methyl (1-hydroxy-5,10-dioxo-3,4,5,10-tetrahydronaphtho [2,3-C]pyran-3-yl) ketone], the concentration for half-maximal inhibition (IC50) in assay [1] (Homo sapiens, SK-OV-3) is > 100000 nM; in assay [2] it was > 100000 nM; in assay [3] (Homo sapiens), > 100000 nM; with Lox (Melanoma) (Homo sapiens) it was > 100000 nM; in assay [4] (setting [5]) it was > 100000 nM.

With `CC[C@H]1CC2=C(C(=O)c3ccccc3C2=O)[C@H](O[C@H]2C[C@H](NC(=O)C(F)(F)F)[C@H](O)[C@H](C)O2)O1` [BCH2020, (1'S, 1S, 3S)-5,10-dioxo-3-ethyl-1-(2',3',6'-trideoxy-3'-trifluoroacetamido-L-lyxohexopyranose)-3,4,5,10-tetrahydro-1H-naphtho-[2,3-c]-pyran], the IC50 in assay [1] (Homo sapiens, SK-OV-3) amounted to 11200 nM; in assay [2] it was 25900 nM; in assay [3] (Homo sapiens), 9420 nM; in the assay on Lox (Melanoma) (Homo sapiens), 5450 nM; in assay [4] (setting [5]) it was 19100 nM.

With `C=C(C)[C@H]1CC2=C(C(=O)c3ccccc3C2=O)[C@H](OC)O1` (relative stereo) [BCH2148, (trans)-5,10-dioxo-3-isopropenyl-1-methoxy-3,4,5,10-tetrahydro-1H-naphtho-[2,3-c]-pyran], the IC50 in assay [1] (Homo sapiens, SK-OV-3) worked out at 12600 nM; in assay [2], 9930 nM; in assay [3] (Homo sapiens), 2360 nM; in assay [4] (setting [5]) it was 7500 nM.

As for `C=CCC1CC2=C(C(=O)c3ccccc3C2=O)C(OC2CC(NC(=O)C(F)(F)F)C(O)C(C)O2)O1` (centres unmarked) [BCH1648], the 50% inhibitory concentration (IC50) in assay [1] (Homo sapiens, SK-OV-3) stood at 51.9 nM; in assay [3] (Homo sapiens), 360 nM; in the assay on Lox (Melanoma) (Homo sapiens), 138 nM; in assay [4] (setting [5]), 309 nM.

In the case of `CC(=O)C1CC2=C(C(=O)c3ccccc3C2=O)C(O[C@H]2C[C@H](O)[C@H](O)[C@H](C)O2)O1` (mixture of isomers) [BCH2117, (1'S,1S,3R) and (1'S,1R,3S)-methyl-(1-[dideoxy-2',6'-dihydroxy-3',4'-L-lyxohexopyranose]-5,10-dioxo-3,4,5,10-tetrahydronaphtho-[2,3-c]-pyran-3-yl) ketone], the half-inhibitory concentration (IC50) came out at 9.5 nM in assay [1] (Homo sapiens, SK-OV-3); 37.4 nM in assay [3] (Homo sapiens); 73 nM with Lox (Melanoma) (Homo sapiens); 30 nM in assay [4] (setting [5]).

For `CO[C@@H]1O[C@H](C(=O)O)CC2=C1C(=O)c1ccccc1C2=O` (relative stereo) [BCH2119, (1,3-cis)-1-methoxy-3-carboxyl-5,10-dioxo-3,4,5,10-tetrahydro-1H-naphtho-[2,3-c]-pyran], the IC50 is > 100000 nM in assay [1] (Homo sapiens, SK-OV-3); > 100000 nM in assay [2]; > 100000 nM in assay [3] (Homo sapiens); > 100000 nM in assay [4] (setting [5]).

Take `CC(NC(=O)C(F)(F)F)[C@H]1CC2=C(C(=O)c3ccccc3C2=O)[C@H](O[C@H]2C[C@H](O)[C@H](O)[C@H](C)O2)O1` (stereo partly drawn) [BCH2018, (1'S,1S,3R)-3-(trifluoroacetamidoethyl)-5,10-dioxo-1-(2',3',6'-trideoxy-3',4'-dihydroxy-L-lyxohexopyranose)-3,4,5,10-tetrahydro-1H-naphtho-[2,3-c]-pyran]: the IC50 in assay [1] came out at 3110 nM; in assay [3], 8560 nM; with Lox (Melanoma), 2380 nM; in assay [4] (48 h with compound) it was 14200 nM.

Consider `CC(=O)[C@H]1CC2=C(C(=O)c3ccccc3C2=O)[C@H](O[C@H]2C[C@H](NC(=O)C(F)(F)F)[C@H](OC(=O)CBr)[C@H](C)O2)O1` [BCH2105, (1'-S, 1-S, 3-R)-methyl-(1-[2',3',4',6' tetradeoxy-3'-trifluoroacetamido-4'-O-(2-bromo-acetyl)-L-lyxopyranose]-5, 10-dioxo-3,4,5,10 tetrahydronaphtho-[2,3-c]pyran-3-yl) ketone], for which the half-maximal inhibitory concentration (IC50) in assay [1] (Homo sapiens, SK-OV-3) is 3 nM; in assay [3] (Homo sapiens), 19 nM; in the assay on Lox (Melanoma) (Homo sapiens) it was 25 nM; in assay [4] (setting [5]), 6.9 nM.
